Results reported in US10377791B2, “Therapeutically active estratrienthiazole derivatives as inhibitors of 17 B-hydroxysteroid dehydrogenase, type 1” (FORENDO PHARMA LTD, priority 2013, dated 2019).

How the values were obtained:
[1] = molecular target: T1, recombinant human 17β-HSD1 (Homo sapiens, UniProt P14061); assay: Inhibition of recombinant human 17β-HSD1; format: biochemical; conditions: inhibitor at 1 μM; 30 nM estrone, 1 mM NADPH, 30 min at RT; read-out: 17β-HDS1 Inhibition % at 1 μM
T1 construct: made in house; host or cells: Sd9 (Sf9) insect cells, baculovirus (Bac to Bac Expression System)
T1 sequence (P14061 1-328): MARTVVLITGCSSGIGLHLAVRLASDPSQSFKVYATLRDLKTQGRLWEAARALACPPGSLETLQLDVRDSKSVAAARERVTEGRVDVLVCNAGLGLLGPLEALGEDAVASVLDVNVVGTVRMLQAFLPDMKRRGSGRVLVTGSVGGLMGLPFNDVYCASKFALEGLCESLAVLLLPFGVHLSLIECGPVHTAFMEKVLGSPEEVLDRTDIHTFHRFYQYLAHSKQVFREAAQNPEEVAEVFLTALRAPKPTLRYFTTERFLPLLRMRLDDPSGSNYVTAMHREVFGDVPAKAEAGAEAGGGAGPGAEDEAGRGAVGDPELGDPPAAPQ
Procedure, shortened: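 Microsomal enzyme from baculovirus-infected insect cells (1 μg/ml) incubated 30 min at RT in 20 mM KH2PO4 pH 7.4 with 30 nM ³H-estrone and 1 mM NADPH, inhibitor at 1 μM or 0.1 μM, 1% DMSO. TCA-stopped; estrone/estradiol separated by radio-HPLC; % inhibition = 100 − % conversion.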

[2] = molecular target: T2, recombinant human 17β-HSD2 (Homo sapiens, UniProt P37059); assay: Inhibition of recombinant human 17β-HSD2; format: biochemical; conditions: inhibitor at 1 μM; 50 nM estradiol, 1 mM NADH, 30 min at RT; read-out: 17β-HSD2 Inhibition % at 1 μM
T2 construct: made in house; host or cells: Sd9 (Sf9) insect cells, baculovirus (Bac to Bac Expression System)
T2 sequence (P37059 1-387): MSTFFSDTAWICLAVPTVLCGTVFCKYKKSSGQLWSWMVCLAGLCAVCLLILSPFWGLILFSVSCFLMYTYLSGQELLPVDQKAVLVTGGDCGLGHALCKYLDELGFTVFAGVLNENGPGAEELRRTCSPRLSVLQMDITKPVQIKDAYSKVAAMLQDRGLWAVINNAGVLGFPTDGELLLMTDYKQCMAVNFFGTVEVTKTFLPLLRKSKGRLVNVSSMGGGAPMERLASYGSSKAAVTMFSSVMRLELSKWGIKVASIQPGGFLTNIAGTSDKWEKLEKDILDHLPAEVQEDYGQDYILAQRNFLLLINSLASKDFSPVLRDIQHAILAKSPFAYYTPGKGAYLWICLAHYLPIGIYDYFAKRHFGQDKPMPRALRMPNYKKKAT
Procedure, shortened: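 Membrane extract of baculovirus-expressed enzyme in Sf9 cells (4 μg/ml) incubated in 20 mM KH2PO4 pH 8.5 with 50 nM estradiol (³H-tracer) and 1 mM NADH, 30 min at RT, 1% DMSO, inhibitor at 1 μM or 0.1 μM. TCA-stopped; estradiol-to-estrone conversion by radio-HPLC; % inhibition = 100 − % conversion.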

Structure (SMILES) | inhibition at 1 µM [1] [%] | inhibition at 1 µM [2] [%]
Cc1cnc(NC(=O)CC[C@@H]2CC(=O)[C@@]3(C)CCC4c5cc(Br)c(O)cc5CCC4C23)s1 (stereo partly drawn) [Compound 56, 3-((13S,15R)-2-bromo-3-hydroxy-13-methyl-17-oxo-7,8,9,11,12,13,14,15,16,17-decahydro-6H-cyclopenta[a]phenanthren-15-yl)-N-(5-methylthiazol-2-yl)propanamide] | 93 | 18
Cc1cnc(NC(=O)CC[C@@H]2CC(=O)[C@@]3(C)CCC4c5ccc(O)c(Br)c5CCC4C23)s1 (stereo partly drawn) [Compound 57, 3-((13S,15R)-4-bromo-3-hydroxy-13-methyl-17-oxo-7,8,9,11,12,13,14,15,16,17-decahydro-6H-cyclopenta[a]phenanthren-15-yl)-N-(5-methylthiazol-2-yl)propanamide] | 92 | 16
Cc1cnc(NC(=O)CC[C@@H]2C(Br)C(=O)[C@@]3(C)CCC4c5cc(Br)c(O)c(Br)c5CCC4C23)s1 (stereo partly drawn) [Compound 59, N-(5-methylthiazol-2-yl)-3-((13S,15S)-2,4,16-tribromo-3-hydroxy-13-methyl-17-oxo-7,8,9,11,12,13,14,15,16,17-decahydro-6H-cyclopenta[a]phenanthren-15-yl)propanamide] | 79 | 2
Cc1cnc(NC(=O)CC[C@@H]2CC(=O)[C@@]3(C)CCC4c5ccc(O)c(Cl)c5CCC4C23)s1 (stereo partly drawn) [Compound 63, 3-((13S,15R)-4-chloro-3-hydroxy-13-methyl-17-oxo-7,8,9,11,12,13,14,15,16,17-decahydro-6H-cyclopenta[a]phenanthren-15-yl)-N-(5-methylthiazol-2-yl)propanamide] | 99 | 21
Cc1cnc(NC(=O)CC[C@@H]2CC(=O)[C@@]3(C)CCC4c5cc(Cl)c(O)cc5CCC4C23)s1 (stereo partly drawn) [Compound 64, 3-((13S,15R)-2-chloro-3-hydroxy-13-methyl-17-oxo-7,8,9,11,12,13,14,15,16,17-decahydro-6H-cyclopenta[a]phenanthren-15-yl)-N-(5-methylthiazol-2-yl)propanamide] | 98 | 5
Cc1cnc(NC(=O)CC[C@@H]2CC(=O)[C@@]3(C)CCC4c5ccc(O)c(F)c5CCC4C23)s1 (stereo partly drawn) [Compound 66, 3-((13S,15R)-4-fluoro-3-hydroxy-13-methyl-17-oxo-7,8,9,11,12,13,14,15,16,17-decahydro-6H-cyclopenta[a]phenanthren-15-yl)-N-(5-methylthiazol-2-yl)propanamide] | 98 | 8
Cc1cnc(NC(=O)CC[C@@H]2CC(=O)[C@@]3(C)CCC4c5cc(F)c(O)cc5CCC4C23)s1 (stereo partly drawn) [Compound 67, 3-((13S,15R)-2-fluoro-3-hydroxy-13-methyl-17-oxo-7,8,9,11,12,13,14,15,16,17-decahydro-6H-cyclopenta[a]phenanthren-15-yl)-N-(5-methylthiazol-2-yl)propanamide] | 98 | 6
Cc1cnc(NC(=O)CC[C@@H]2CC(=O)[C@@]3(C)CCC4c5cc(O)c(O)cc5CCC4C23)s1 (stereo partly drawn) [Compound 68, 3-((13S,15R)-2,3-dihydroxy-13-methyl-17-oxo-7,8,9,11,12,13,14,15,16,17-decahydro-6H-cyclopenta[a]phenanthren-15-yl)-N-(5-methylthiazol-2-yl)propanamide] | 88 | 3
CC(=O)Oc1cc2c(cc1F)C1CC[C@]3(C)C(=O)C[C@@H](CCC(=O)Nc4ncc(C)s4)C3C1CC2 (stereo partly drawn) [Compound 69, (13S,15R)-2-fluoro-13-methyl-15-(3-((5-methylthiazol-2-yl)amino)-3-oxopropyl)-17-oxo-7,8,9,11,12,13,14,15,16,17-decahydro-6H-cyclopenta[a]phenanthren-3-yl acetate] | 57 | 4
Cc1cnc(NC(=O)CC[C@@H]2CC(=O)[C@@]3(C)CCC4c5cc(Br)c(O)c(F)c5CCC4C23)s1 (stereo partly drawn) [Compound 71, 3-((13S,15R)-2-bromo-4-fluoro-3-hydroxy-13-methyl-17-oxo-7,8,9,11,12,13,14,15,16,17-decahydro-6H-cyclopenta[a]phenanthren-15-yl)-N-(5-methylthiazol-2-yl)propanamide] | 91 | 7
Cc1cnc(NC(=O)CC[C@@H]2CC(=O)[C@@]3(C)CCC4c5cc(F)c(O)c(Br)c5CCC4C23)s1 (stereo partly drawn) [Compound 72, 3-((13S,15R)-4-bromo-2-fluoro-3-hydroxy-13-methyl-17-oxo-7,8,9,11,12,13,14,15,16,17-decahydro-6H-cyclopenta[a]phenanthren-15-yl)-N-(5-methylthiazol-2-yl)propanamide] | 89 | 10
Cc1cnc(NC(=O)CC[C@@H]2CC(=O)[C@@]3(C)CCC4c5cc([N+](=O)[O-])c(O)c(F)c5CCC4C23)s1 (stereo partly drawn) [Compound 73, 3-((13S,15R)-4-fluoro-3-hydroxy-13-methyl-2-nitro-17-oxo-7,8,9,11,12,13,14,15,16,17-decahydro-6H-cyclopenta[a]phenanthren-15-yl)-N-(5-methylthiazol-2-yl)propanamide] | 90 | 2
Cc1cnc(NC(=O)CC[C@@H]2CC(=O)[C@@]3(C)CCC4c5cc([N+](=O)[O-])c(O)c(Cl)c5CCC4C23)s1 (stereo partly drawn) [Compound 75, 3-((13S,15R)-4-chloro-3-hydroxy-13-methyl-2-nitro-17-oxo-7,8,9,11,12,13,14,15,16,17-decahydro-6H-cyclopenta[a]phenanthren-15-yl)-N-(5-methylthiazol-2-yl)propanamide] | 89 | 2
Cc1cnc(NC(=O)CC[C@@H]2CC(=O)[C@@]3(C)CCC4c5cc6ncoc6c(Cl)c5CCC4C23)s1 (stereo partly drawn) [Compound 77, 3-((3R,12aS)-6-chloro-12a-methyl-1-oxo-2,3,3a,3b,4,5,10b,11,12,12a-decahydro-1H-cyclopenta[7,8]phenanthro[3,2-d]oxazol-3-yl)-N-(5-methylthiazol-2-yl)propanamide] | 87 | 0
Cc1cnc(NC(=O)CC[C@@H]2CC(=O)[C@@]3(C)CCC4c5cc6ncoc6c(F)c5CCC4C23)s1 (stereo partly drawn) [Compound 78, 3-((3R,12aS)-6-fluoro-12a-methyl-1-oxo-2,3,3a,3b,4,5,10b,11,12,12a-decahydro-1H-cyclopenta[7,8]phenanthro[3,2-d]oxazol-3-yl)-N-(5-methylthiazol-2-yl)propanamide] | 91 | 1
Cc1cnc(NC(=O)CC[C@@H]2CC(=O)[C@@]3(C)CCC4c5ccc(OS(=O)(=O)C(F)(F)F)cc5CCC4C23)s1 (stereo partly drawn) [Compound 79, (13S,15R)-13-methyl-15-(3-((5-methylthiazol-2-yl)amino)-3-oxopropyl)-17-oxo-7,8,9,11,12,13,14,15,16,17-decahydro-6H-cyclopenta[a]phenanthren-3-yl trifluoromethanesulfonate] | 72 | 0
Cc1cnc(NC(=O)CC[C@@H]2CC(=O)[C@@]3(C)CCC4c5cc([N+](=O)[O-])ccc5CCC4C23)s1 (stereo partly drawn) [Compound 84, 3-((13S,15R)-13-methyl-2-nitro-17-oxo-7,8,9,11,12,13,14,15,16,17-decahydro-6H-cyclopenta[a]phenanthren-15-yl)-N-(5-methylthiazol-2-yl)propanamide] | 93 | 1
